Drawing on patent publication US20250282799A1, “SUBSTITUTED PYRIDO[4,3-d]PYRIMIDINES AS KRAS MODULATORS” (Alterome Therapeutics, Inc., priority 2023, published 2025), this text covers IC50 for six molecules.

One experiment addresses KRAS (G12V)/CRAF (Homo sapiens (Human), UniProt P01116, G12V). In words: TR-FRET biochemical KRAS:CRAF protein:protein interaction assay, KRAS (G12V). Format: binding. The conditions noted are these: GMPPNP loaded Biotin-KRAS (G12V), FLAG CRAF RBD; read-out: TR-Fret_PPI KRAS (G12V)/CRAF IC50. The protocol:
(§1) The effect of test compounds on KRAS and CRAF protein: protein interaction (PPI) was measured by time resolved fluorescence resonance energy transfer (TR-FRET) Ras binding domain (RBD) assay, which uses a signal generated through fluorescent resonance energy transfer between a donor and an acceptor molecule when in close proximity to each other. Interference from buffer, media, etc. is reduced by dual-wavelength detection; the energy pulse from the excitation source is followed by a time delay, which allows interfering short-lived fluorescence to decay (Degorce et al. 2009).
(§2) The KRAS: CRAF PPI assay can be utilized to identify KRAS ‘ON’ state inhibitors, as the KRAS protein is loaded with GMPPNP (a non-hydrolyzable GTP analog), which represents the active KRAS ‘ON’ state. FLAG-tagged CRAF RBD binding to the GMPPNP loaded biotin-tagged KRAS will result in a fluorescence energy transfer from the donor (Tb-anti-FLAG, emission 620 nm) to the acceptor (SA-XL665, emission 665 nm). Disruption of KRAS and CRAF binding will reduce the TR-FRET signal.
(§3) Test compound was dissolved in DMSO to create a 1 mM stock solution. A 45 μL volume of stock solution was transferred to a 384well polypropylene plate. A 3fold, 10point dilution was performed by transferring 15 μL of test compound solution into 30 μL of DMSO.
(§4) Assay buffer A was prepared with […] Hepes, pH7.3, 0.002% Tween 20, 0.1% BSA, […] NaCl, 5 mM MgCl2, and 10 uM GMP-PNP. 4× KRAS Solution was prepared with 80 nM of Biotin-KRAS (G12D/V), GMPPNP loaded or Biotin-KRAS (WT), GMPPNP loaded protein in assay buffer A. 4× Raf RBD Solution was prepared with 400 nM FLAG CRAF RBD in assay buffer A. 2× Detection Mixture was prepared with 2 nM Tb-anti-FLAG antibody and 10 nM and 10 nM SA-XL665 in assay buffer A.
(§5) A volume of 100 nL of 100× test compound working solution or DMSO vehicle control solution was dispensed to each well (duplicate for each concentration) of a 384-well ProxiPlate Plus assay plate. A volume of 2.5 μL of 4× KRAS Solution was added to each well of the assay plate for a final concentration of 20 nM Biotin-KRAS (G12D/V),GMPPNP loaded or 20 nM Biotin-KRAS (WT), GMPPNP. For low control, add 2.5 μL of assay buffer (no KRAS protein). Pre-incubate assay plate for 30 minutes at room temperature. Following pre-incubation of test compound or DMSO with Biotin-KRAS (G12D/V),GMPPNP loaded or Biotin-KRAS (WT),GMPPNP, a volume of 2.5 μL of 4× FLAG cRAF RBD Solution was added to each well of the assay plate for a final concentration of 100 nM FLAG CRAF RBD. The assay plate was subjected to centrifuge at 1000 rpm for 1 minute and pre-incubate assay plate for 150 minutes at room temperature. Following the pre-incubation with FLAG cRAF RBD, a volume of 5 μl of 2× Detection Mixture was added to each well of the assay plate for a final concentration of 1 nM Tb-anti-FLAG and 5 nM SA-XL665. The assay plate was centrifuged at 1000 rpm for 1 minute and incubated for 90 minutes at room temperature. TR-FRET signal was measured on a BioTek Synergy Neo2 microplate reader (excitation at 340 nm, emission at 665 nn and 620 nm).
(§6) TR-FRET ratios were calculated by dividing the acceptor emission value (665 nm) by the donor emission value (620 nm) for each sample.
(§7) Percent inhibition was calculated by multiplying the normalized TR-FRET ratio by 100, where TR-FRET ratio^HIGH was the TR-FRET ratio obtained from wells with 1% DMSO and complete reaction mixture, TR-FRET ratio^LOW was the ratio obtained from wells with 1% DMSO and reaction mixture without KRAS protein and TR-FRET ratio^SAMPLE was the TR-FRET ratio from wells with test compound and complete reaction mixture. The IC50 values were calculated from normalized TR-FRET ratios with the Levenberg-Marquardt 4 parameter fitting procedure.
(§8) This assay quantifies the interaction of a KRAS mutant protein (e.g., G12V) with the CRAF Ras-binding domain (RBD). […]
For orientation: In TR-FRET formats the signal depends on donor and acceptor labels being close together.

In another experiment the target is KRAS (G12D)/CRAF (Homo sapiens (Human), UniProt P01116, G12D). Kind of experiment: TR-FRET biochemical KRAS:CRAF protein:protein interaction assay, KRAS (G12D). Format: binding. The following applies: GMPPNP loaded Biotin-KRAS (G12D), FLAG CRAF RBD; read-out: TR-Fret_PPI KRAS (G12D)/CRAF IC50. The protocol:
as §1, §2, §3, §4, §5, §6, §7, §8

Experiment [1] deals with KRAS G12V dependent lung adenocarcinoma cell line, NCI-H441. In words: Cellular pERK (Thr202/Tyr204) FRET/HTRF assay. Type of experiment: cell-based. The conditions noted are these: Homo sapiens, NCI-H441, cellular pERK (Thr202/Tyr204) HTRF, NCI-H441 cells. In a few lines: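 Read-out is a wash-free FRET sandwich immunoassay for endogenous ERK1/2 phosphorylated on Thr202/Tyr204. Signal was measured in NCI-H441 lung adenocarcinoma cells after 1 hr compound exposure at 37 °C. IC50 values come from fitted concentration-response curves.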

KRAS (G12D)/CRAF, sequence (P01116-2 other isoform, or with tags, fused parts or gaps G12D): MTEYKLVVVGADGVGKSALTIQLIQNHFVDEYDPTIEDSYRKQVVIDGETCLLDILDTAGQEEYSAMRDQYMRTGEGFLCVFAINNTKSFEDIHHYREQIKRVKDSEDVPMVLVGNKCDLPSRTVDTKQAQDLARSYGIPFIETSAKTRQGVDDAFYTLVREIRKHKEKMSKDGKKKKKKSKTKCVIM
KRAS (G12V)/CRAF, sequence (P01116-2 other isoform, or with tags, fused parts or gaps G12V): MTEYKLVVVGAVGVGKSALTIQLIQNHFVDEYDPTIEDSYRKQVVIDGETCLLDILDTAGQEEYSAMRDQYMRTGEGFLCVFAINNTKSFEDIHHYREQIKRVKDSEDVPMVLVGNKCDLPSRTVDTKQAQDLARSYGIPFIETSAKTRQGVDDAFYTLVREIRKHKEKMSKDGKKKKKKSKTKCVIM

For `[2H]C([2H])(Oc1nc(N2CCOC[C@@H]3[C@H](Cl)[C@@H]32)c2cnc(-c3cc(N)cc4ccc(F)c(C#C)c34)c(F)c2n1)[C@@]12CCCN1C[C@H](F)C2` [Example 250, 4-(4-((1R,7R,8S)-8-chloro-5-oxa-2-azabicyclo[5.1.0]octan-2-yl)-8-fluoro-2-(((2R,7aS)-2-fluorotetrahydro-1H-pyrrolizin-7a(5H)-yl)methoxy-d2)pyrido[4,3-d]pyrimidin-7-yl)-5-ethynyl-6-fluoronaphthalen-2-amine], the IC50 on KRAS (G12V)/CRAF was 3000 nM; at KRAS (G12D)/CRAF, 1670 nM; in experiment [1] it was 50 to 500 nM.

Take `[2H]C([2H])(Oc1nc(N2CCCO[C@H]3[C@H](Cl)[C@H]32)c2cnc(-c3cc(N)cc4ccc(F)c(C#C)c34)c(F)c2n1)[C@@]12CCCN1C[C@H](F)C2` [Example 316, 4-(4-((1R,7S,8R)-8-Chloro-2-oxa-6-azabicyclo[5.1.0]octan-6-yl)-8-fluoro-2-(((2R,7aS)-2-fluorotetrahydro-1H-pyrrolizin-7a(5H)-yl)methoxy-d2)pyrido[4,3-d]pyrimidin-7-yl)-5-ethynyl-6-fluoronaphthalen-2-amine]: the IC50 is 51.2 nM at KRAS (G12V)/CRAF, 14.1 nM at KRAS (G12D)/CRAF and less than 50 nM in experiment [1].

As to `[2H]C([2H])(Oc1nc(N2CCCO[C@@H]3[C@@H](Cl)[C@@H]32)c2cnc(-c3cc(N)cc4ccc(F)c(C#C)c34)c(F)c2n1)[C@@]12CCCN1C[C@H](F)C2` [Example 317, 4-(4-((1S,7R,8S)-8-chloro-2-oxa-6-azabicyclo[5.1.0]octan-6-yl)-8-fluoro-2-(((2R,7aS)-2-fluorotetrahydro-1H-pyrrolizin-7a(5H)-yl)methoxy-d2)pyrido[4,3-d]pyrimidin-7-yl)-5-ethynyl-6-fluoronaphthalen-2-amine], the IC50 was 3000 nM on KRAS (G12V)/CRAF, 3000 nM at KRAS (G12D)/CRAF and 50 to 500 nM in experiment [1].

Turning to `[2H]C([2H])(Oc1nc(N2CCOC[C@@H]3[C@@H](Cl)[C@@H]32)c2cnc(-c3cc(N)cc4ccc(F)c(C#C)c34)c(F)c2n1)[C@@]12CCCN1[C@H](C)[C@H](F)C2` [Example 339, 4-(4-((1R,7R,8R)-8-chloro-5-oxa-2-azabicyclo[5.1.0]octan-2-yl)-8-fluoro-2-(((2R,3R,7aS)-2-fluoro-3-methyltetrahydro-1H-pyrrolizin-7a(5H)-yl)methoxy-d2)pyrido[4,3-d]pyrimidin-7-yl)-5-ethynyl-6-fluoronaphthalen-2-amine], the values for the IC50 (on KRAS (G12V)/CRAF; on KRAS (G12D)/CRAF; in experiment [1]) were not below 10000 nM, 3000 nM and 500 to 10000 nM, respectively.

On to `[2H]C([2H])(Oc1nc(N2CCOC[C@H]3[C@H](Cl)[C@H]32)c2cnc(-c3cc(N)cc4ccc(F)c(C#C)c34)c(F)c2n1)[C@@]12CCCN1[C@H](C)[C@H](F)C2` [Example 340, 4-(4-((1S,7S,8S)-8-Chloro-5-oxa-2-azabicyclo[5.1.0]octan-2-yl)-8-fluoro-2-(((2R,3R,7aS)-2-fluoro-3-methyltetrahydro-1H-pyrrolizin-7a(5H)-yl)methoxy-d2)pyrido[4,3-d]pyrimidin-7-yl)-5-ethynyl-6-fluoronaphthalen-2-amine], for which the values for the IC50 (at KRAS (G12V)/CRAF; at KRAS (G12D)/CRAF; in experiment [1]) were 50.1 nM, 7.14 nM and less than 50 nM, respectively.

On to `[2H]C([2H])(Oc1nc(N2CCCC[C@@H]3[C@@H](Cl)[C@@H]32)c2cnc(-c3cc(N)cc4ccc(F)c(C#C)c34)c(F)c2n1)[C@@]12CCCN1C[C@H](F)C2` [Example 341, 4-(4-((1R,7S,8R)-8-chloro-2-azabicyclo[5.1.0]octan-2-yl)-8-fluoro-2-(((2R,7aS)-2-fluorotetrahydro-1H-pyrrolizin-7a(5H)-yl)methoxy-d2)pyrido[4,3-d]pyrimidin-7-yl)-5-ethynyl-6-fluoronaphthalen-2-amine], for which the IC50 at KRAS (G12V)/CRAF was not below 10000 nM; at KRAS (G12D)/CRAF it was 1790 nM; in experiment [1] it was 500 to 10000 nM.
